≈ marks a conversion by molar mass, not a printed value. Where “and” joins values, the source holds several entries; their conditions need not be identical. Equal entries are not always repeated. Structures can show the parent of a compound that is named as a salt. Where two headings read alike, the source gives them in different places.
Tests used:
mice = assay: Skin sensitization, LLNA (local lymph node assay); conditions: for Median SI / SI / Ind. SI: LLNA mice; for Ind. SI: individual animals
Description: Sensitization was tested in mice using a LLNA (local lymph node assay) model for the detection of skin sensitization. […] In another LLNA study, LD Propyl and Benzyl Esters were tested in vehicle containing penetration enhancers.

[1] = Solubility in PBS, flask method; format: physicochemical; conditions: for solubility: phosphate buffered saline (PBS), aqueous buffer, thermodynamic from solid, read-out: Solubility of LDEs in PBS
Description: The “flask method” was used to determine the solubility of the test material in phosphate buffered saline (PBS) according to the OECD Guidelines for the Testing of Chemicals. Briefly, the test material was dissolved in PBS at a temperature slightly above the test temperature. When saturation is achieved, the solution is cooled to the test temperature and the mass concentration of the LD alkyl ester in the solution is determined quantitatively by measuring the absorbance of the solution at 280 nm and comparing the readings to a calibration curve of the relevant alkyl ester dissolved in PBS.

[2] = Pig skin penetration of LDE by patch; format: in vivo, pigs; conditions: for LD P/WB (%) / Ratio C/P / LD blood cells (C) / Plasma (P) LD / Whole blood (WB) LD: 16 h after patch application; for Ratio C/P: blood cell fraction LD / plasma LD; for LD blood cells (C) / Plasma (P) LD / Whole blood (WB) LD / LD concentration in the blood cell fraction higher as compared to LDbzE: pigs; for LD concentration in the blood cell fraction higher as compared to LDbzE: patch
Description: Patch removal occurred at 24 h. […] Both whole blood and plasma were subjected to LD and 3-OMD analysis. […] LD formed in the RBC stay within the RBCs, and is further metabolized to 3-OMD, which is reallocated from the RBCs into the plasma.

[3] = Oral levodopa arginine and carbidopa arginine salts, PK in pigs; format: in vivo, female landrace×large white swine; conditions: for absorption as compared to LD/CD (Sinemet): oral 255/45 mg LDs/CDs (corresponding to 100/25 LD/CD); for PK of plasma LD and CD: oral enteric coated LDs/CDs
Description: Pigs were orally administered with 255/45 mg LD-arginine salt (LDs)/CD-arginine salt (CDs) to 30-35 kg pigs in gelatin coated or non-coated capsules (corresponding to 100/25 LD/CD). Plasma levels of LD and CD were measured by HPLC-ECD.

[4] = Continuous subcutaneous administration of LD benzyl ester-HCl in pigs; format: in vivo; conditions: 15% aqueous solution pH 4.7, continuous SC 2 ml/24 h, oral carbidopa q8 h
Description: An aqueous solution of 15% LD benzyl ester-HCl, pH 4.7, was continuously administered subcutaneously via an insulin patch pump, 2 ml/24 h. Carbidopa was administered orally q8 h, starting 1 h prior to pump application.

[5] = cited from earlier work
[6] = Effect of pH on stability and hydrolysis of LDipE; format: physicochemical
Description: FIG. 19 indicates the effect of pH on stability and hydrolysis of LDipE after 10 days at 4 and 40° C.

[7] = for LD in Blood (ng/ml): LDiPE / LD in Blood (ng/ml): LD-d3 / Recovery from Blood (%): LD-d3: whole blood
Description: LDEs [isopropyl ester (LDipE), propyl ester (LDpE), ethyl ester (LDeE)] and LD-d3, were spiked into whole blood, incubated for 15 or 60 minutes at 37° C., and the plasma or whole blood concentration of LD, LD-d3 and LDipE were quantified using HPLC analysis as shown in Table 6 and FIG. 13.

[8] = Intradermal delivery of LDE in pigs; format: in vivo
Description: LDEs were infused intradermally for 4 hours. […] Both whole blood and plasma samples were subjected to LD and LDE analysis.

[9] = Continuous subcutaneous benserazide, levodopa PK in pigs; format: in vivo, female landrace×large white swine; conditions: continuous subcutaneous benserazide with oral L-dopa/Carbidopa
Description: (§1) Plasma levels of L-dopa were measured by HPLC-ECD.

[10] = Transdermal delivery through pig skin ex vivo, Franz cell delivery system; format: in vitro ADME, porcine; conditions: gel formulations, receiver samples 0, 16, 19 and 22 hours
Description: Gel formulations containing CDPE were prepared. Samples were collected from the receiver cell at time 0, 16, 19 and 22 hours after formulation application on to the skin. The amount of CD compounds in the receiver cell fluid was determined by a spectrophotometer at […].

[11] = biological target: T1, dopa-decarboxylases (DDC) (Sus scrofa, UniProt P80041); assay: Inhibition of dopa-decarboxylase activity in vitro; format: biochemical; conditions: porcine liver homogenate
T1 construct: DDC enzymes were obtained from porcine liver homogenate; from tissue; host or cells: porcine liver homogenate
T1 sequence (P80041 1-486): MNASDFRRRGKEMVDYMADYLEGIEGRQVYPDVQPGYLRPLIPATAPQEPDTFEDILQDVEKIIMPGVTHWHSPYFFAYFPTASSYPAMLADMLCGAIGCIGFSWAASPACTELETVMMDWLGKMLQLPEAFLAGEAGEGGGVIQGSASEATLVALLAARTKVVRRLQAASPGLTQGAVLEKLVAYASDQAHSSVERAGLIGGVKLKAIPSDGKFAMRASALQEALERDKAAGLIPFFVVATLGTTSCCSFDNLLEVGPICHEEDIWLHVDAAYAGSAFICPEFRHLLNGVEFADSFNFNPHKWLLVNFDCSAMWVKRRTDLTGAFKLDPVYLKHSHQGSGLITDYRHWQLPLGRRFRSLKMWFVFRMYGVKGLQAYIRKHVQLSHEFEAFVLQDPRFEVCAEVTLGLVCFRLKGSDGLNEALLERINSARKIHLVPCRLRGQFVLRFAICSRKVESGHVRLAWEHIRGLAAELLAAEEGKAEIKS
Description: DDC enzymes were obtained from porcine liver homogenate and their activity was measured by comparing LD concentrations with and without carbidopa propyl ester (CDPE). Liver homogenate preparation was based on the method described by Umezawa et al; (J. Antib. 1975, 28(12):947-52).
All samples were separated on high pressure liquid chromatography columns and the identity and concentration of L-DOPA and dopamine were determined by HP UV-HPLC analysis at […].

[12] = Continuous subcutaneous carbidopa with or without entacapone, levodopa PK in pigs; format: in vivo, female landrace×large white swine; conditions: continuous SC 2% carbidopa with 2.5% entacapone, oral LD/CD
Description: as §1

[13] = T0 after spiking into whole blood
[14] = T15′ after spiking into whole blood

## CCCOC(=O)[C@@H](N)Cc1ccc(O)c(O)c1 [LD Propyl Ester, levodopa propyl ester]
mice; 1M (24%) in DMF
  Median SI: 3.5
  SI: 3.6
  Ind. SI: 2.32 and 4.55 and 5.12 and 2.44
mice; 15% in Vehicle (penetration enhancers)
  Ind. SI: 36.42 and 7.70 and 38.60 and 3.53 and 31.68
mice; 15% in Vehicle
  Median SI: 31.7
  SI: 23.6
mice; compared with DMF
  change of SI when applied using the transdermal formulation: significantly increased
[1]
  Solubility of LDEs in PBS: 11.238 mg/mL
[2]; listed as Propyl
  LD P/WB (%): 24.7%
[2]; listed as propyl
  LD P/WB (%): 25%
[2]
  Ratio C/P: 3.0
  LD blood cells (C): 4820 ng/mL
  Plasma (P) LD: 1584 ng/mL
  Whole blood (WB) LD: 6404 ng/mL
  LD concentration in the blood cell fraction higher as compared to LDbzE: 1.9 ×
[2]; listed as LDpE
  Ratio C/P: 3

## N=C(N)NCCCC(N)C(=O)O.NC(Cc1ccc(O)c(O)c1)C(=O)O (stereo not shown) [LDs]
[3]
  absorption as compared to LD/CD (Sinemet): absorbed more rapidly and efficiently
  PK of plasma LD and CD: extended the PK of plasma LD and CD

## CCCCCCCCOC(=O)[C@@H](N)Cc1ccc(O)c(O)c1 [Octyl, levodopa octyl ester]
[1]
  solubility: 0.031 mg/mL (≈ 0.1 mM)

## Nc1ccc(N)cc1 [Positive Control, p-Phenylendiamine, reference compound]
mice; 1%
  Median SI: 9.7
  SI: 10.1
  Ind. SI: 8.82 and 9.33 and 12.15 and 10.00

## CCCCOC(=O)[C@@H](N)Cc1ccc(O)c(O)c1 [Butyl, levodopa butyl ester]
[1]
  Solubility of LDEs in PBS: 8.85 mg/mL

## NC(Cc1ccc(O)c(O)c1)C(=O)OCc1ccccc1 (stereo not shown) [LD benzyl ester-HCl]
[4]
  plasma concentrations of LD: fluctuations of LD concentrations in the plasma coincided with oral carbidopa administration

## N[C@@H](Cc1ccc(O)c(O)c1)C(=O)O [Levodopa, L-3,4-dihydroxyphenylalanine]
[5]
  solubility in alcohol, chloroform or ether: practically insoluble
  solubility in water: only slightly soluble in water

## CC(C)OC(=O)[C@@H](N)Cc1ccc(O)c(O)c1 [LD Isopropyl Ester, levodopa isopropyl ester]
mice; 1M (24%) in DMF
  Median SI: 3.5
  SI: 4.2
  Ind. SI: 3.63 and 7.11 and 2.69 and 3.33
[1]
  solubility: 17.3 mg/mL (≈ 72.2 mM)
[6]; after 10 days at 4° C.
  pH of the most stable formulation tested: 5.1
[6]; after 10 days at 40° C., listed as LDipE
  pH of the most stable formulations tested: 3.7 and 4.8
In vitro
  recovery at 15 min: 0%
  recovery at 15 min, 400 ng/ml: 0%
[7]; 0 min
  Recovery from Blood (%): LDiPE: 45%
[7]; T0 after spiking of LDipE into whole blood
  LD in Plasma (ng/ml): LDiPE: 0 ng/mL
[7]; T15′ after spiking of LDipE into whole blood
  LD in Plasma (ng/ml): LDiPE: 0 ng/mL
[7]; T0 after spiking of LDipE
  LD in Blood (ng/ml): LDiPE: 180 ng/mL
[7]; T15′ after spiking of LDipE, 37° C.
  LD in Blood (ng/ml): LDiPE: 0 ng/mL
[8]; during 4 hours intradermal infusion
  levels of LDipE in the RBC fraction: Significant levels of LDipE were found in the RBC fraction

## NC(CO)C(=O)NNCc1ccc(O)c(O)c1O (stereo not shown) [benserazide]
[9]
  pharmacokinetic profile of LD: extended the pharmacokinetic profile of LD

## N[C@@H](Cc1ccc(O)c(O)c1)C(=O)OCc1ccccc1 [LD Benzyl Ester, levodopa benzyl ester]
[2]
  LD P/WB (%): 39.1%
  LD blood cells (C): 2506 ng/mL
  Whole blood (WB) LD: 4115 ng/mL
[2]; listed as LDbzE
  LD P/WB (%): ~40%
[8]; intradermal infusion
  hydrolysis to LD: hydrolyzed to LD faster than LD isopropyl ester

## [2H]c1c([2H])c(C[C@H](N)C(=O)O)c([2H])c(O)c1O [LD-d3]
[7]; [13]
  LD in Plasma (ng/ml): LD-d3: 533 ng/mL
  Recovery from Plasma (%): LD-d3: 67%
[7]; [14]
  LD in Plasma (ng/ml): LD-d3: 573 ng/mL
  Recovery from Plasma (%): LD-d3: 70% and 72%
[7]; T0 after spiking
  LD in Blood (ng/ml): LD-d3: 289 ng/mL
  Recovery from Blood (%): LD-d3: 72%
[7]; T15′ after spiking
  Recovery from Blood (%): LD-d3: 72%
[7]; T15′ after spiking, 37° C.
  LD in Blood (ng/ml): LD-d3: 288 ng/mL

## CCOC(=O)[C@@H](N)Cc1ccc(O)c(O)c1 [LD Ethyl Ester, levodopa ethyl ester]
mice; 1M (24%) in DMF
  Median SI: 10.8
  SI: 10.7
  Ind. SI: 13.31 and 8.22 and 14.45 and 6.65
[2]; listed as Ethyl
  LD P/WB (%): 13.4%
[2]; listed as ethyl
  LD P/WB (%): 13%
[2]
  Ratio C/P: 6.5
  LD blood cells (C): 6418 ng/mL
  Plasma (P) LD: 989 ng/mL
  Whole blood (WB) LD: 7407 ng/mL
  LD concentration in the blood cell fraction higher as compared to LDbzE: 2.5 ×

## CCCOC(=O)C(C)(Cc1ccc(O)c(O)c1)NN (stereo not shown) [CDPE, carbidopa propyl ester]
[10]
  transdermal delivery through full thickness porcine skin: penetrates the skin in an enhancer-dose dependent manner
[11]
  inhibition of decarboxylation of L-dopa to dopamine: inhibits the decarboxylation of L-dopa to dopamine, in a similar manner to carbidopa and benserazide

## CC(Cc1ccc(O)c(O)c1)(NN)C(=O)O.N=C(N)NCCCC(N)C(=O)O (stereo not shown) [CDs]
[3]
  absorption as compared to LD/CD (Sinemet): absorbed more rapidly and efficiently
  PK of plasma LD and CD: extended the PK of plasma LD and CD

## CCN(CC)C(=O)/C(C#N)=C/c1cc(O)c(O)c([N+](=O)[O-])c1 [entacapone]
[12]
  levels of 3-OMD: effectively reduced
  pharmacokinetics of levodopa: did not further extend

Reference: patent publication US20130253056A1, “Continuous Administration of Levodopa and/or Dopa Decarboxylase Inhibitors and Compositions for Same” (NEURODERM, LTD., priority 2009, published 2013)
